Data on nine compounds can be found in US11096952B2, “Chemicals and methods to prevent and treat TGF-beta mediated activation of fibroblasts to reduce and treat cancer and fibrosis” (Board of Supervisors of Louisiana State University and …, priority 2016, dated 2021).

Series [1] concerns TGF-β-induced fibronectin expression. Nature of the series: Western blot of TGF-β-induced fibronectin expression in WPMY-1 fibroblasts. The note with it: for TGF-β-induced fibronectin expression, intracellular Ca2+ modulators (western blot): WPMY-1, 2.5-10 μM, 5 ng/ml TGF-β, 24 hours. The series is classed as cell-based, human. How it is done:
(§1) Inhibitors of CAF Differentiation. A. WPMY-1 cells were plated into each well of 4-chamber slice (for IF), or (C) in a 24 well plate (for western blot analysis). After cell attachment, vehicle or 5 ng/ml TGF-β was added into each well and incubated for 24 h in a 37° C. in a humidified incubator containing 5% CO2. For fluorescence detection (A), cells were fixed and stained with antibody detecting fibronectin and/or stained with DAPI to detect the nuclei. Protein was extracted with boiling Lamaelli buffer for WB (C) and blots were probed with anti-fibronectin or anti-tubulin antibodies. Fibronectin fluorescence (D and E) was measured in the presence or absence of TGF-β in 8 well replicates as follows. Cells were conditioned in serum-free DMEM for 48 hr prior to the addition of TGF-β. Images were acquired using a Cellomics platform with a mask shown in the schematic of (B). The mean of the total fluorescence intensity in each well was calculated from 300 cells per image field and up to 15 fields from each well for fibronectin. The fold change in fibronectin expression per acquired image (nuclei) is shown (Mean+/−SD).
Panel A1 is the control, Panel A2 is the TGF-β treated wells and Panel A3 is TGF-β plus PsA at 5 micromolar. Images were captured using the Cellomics imaging system.
Representative blots are shown with two exposures of fibronectin to account for strong signal intensity. n=3.
FIGS. 9A-9B: Increases in intracellular Ca^2+ prevent TGF-β-induced fibronectin expression. (A) WPMY-1 fibroblasts were treated with 2.5 μM thapsigargin±5 ng/ml TGF-β for 24 hours. (B) WPMY-1 fibroblasts were treated with 2.5-10 μM 3′,4′-dichlorobenzamil hydrochloride (DCB)±5 ng/ml TGF-β for 24 hours. Cell lysates were analyzed by western blot for fibronectin expression.
Because of the observed low nanomolar effective concentration of the cardiac glycosides, the inventors hypothesized that the cardiac glycosides may be acting by binding to their high affinity target, the Na^+/K^+ ATPase, and that action through the ATPase is the mechanism by which the cardiac glycosides are able to block TGF-β-induced fibronectin expression. It is well documented that inhibition of the Na^+/K^+ ATPase by digoxin leads to increases in intracellular Ca^2+ by preventing Ca^2+ efflux through the Na^+/Ca^2+ exchanger. In order to determine if increased intracellular Ca^2+ is sufficient to prevent TGF-β-induced fibronectin expression, the inventors utilized two compounds that increase intracellular Ca^2+ concentrations. 3′,4′-dichlorobenzamil hydrochloride (DCB) inhibits the Na^+/Ca^2+ exchanger, Na^+ transport, and sarcoplasmic reticulum Ca^2+ release channels. Thapsigargin inhibits the endoplasmic reticulum Ca^+ ATPase, preventing storage of Ca^2+ in the endoplasmic reticulurn, causing an accumulation in the cytoplasm. Cells were treated with 2.5-10 μM of DCB or thapsigargin±TGF-β for 24 hours.
A general note: Immunoblotting shows a protein as a band on a membrane.

In series [2] the test system is TGF-β-induced fibronectin. Nature of the series: High content imaging (Cellomics) screen for inhibitors of fibronectin induction by TGF-beta in WPMY-1 cells. The series is classed as cell-based, human. As to the method:
as §1, with “The fold change in fibronectin expression per acquired image (nuclei) is shown (Mean+/−SD).” left out
FIGS. 4A-4H: Dose response for identified hits. As shown in the four panels of FIG. 4A, fibronectin fluorescence was measured from images acquired following a Cellomics scan using WPMY-1 cells with concentrations of hits over a range of 0-100 uM. […] Results were expressed as percent inhibition caused by cells treated with TGF-β alone and without testing compound, which was considered as 100%. […]
FIGS. 14-15 show Table I—Prestwick Library and Table II—NIH Library chemicals respectively. […] A “hit” was defined as a compound causing at least 50% reduction of “Mean_RingTotal Intensity”, which is the fluorescence intensity within the defined ring (see FIG. 2) surrounding nucleus of each cell, summed for 300 cells per image and 15 fields per image. The solvent, 0.1% Dimethyl Sulfoxide (DMSO), with and without TGF-beta served as an internal control on each plate to normalize day-to-day and plate-to-plate variation with DMSO alone as low fluorescence (0%) and TGF-β treated as maximal fluorescence (100%). […]

The test system of a further series is WPMY-1 cells. Description: Viability / metabolic activity assay on WPMY-1 cells. The note with it: WPMY-1, compound at its IC50, up to 48 hours, 1% FBS DMEM, vs DMSO control. How it is done:
Metabolically viable cells (indicated by bar; left y-axis) are indicated by fluorescent intensity (560/590 nm).
Cardiac glycosides have been shown previously to inhibit cell growth in a variety of cell types, in order to determine whether cardiac glycosides inhibited TGE-β-induced fibronectin expression by affecting metabolic activity, viability assays were performed on WPMY-1 cells over 48 hours in 1% FBS DMEM.

The subject of series [3] is activated fibroblast phenotype (fibronectin, YAP, TAZ, smooth muscle actin). Description: Western blot of activated fibroblast markers (FN, YAP, TAZ, SMA) in MRC-5 lung fibroblasts induced by growth factors. The series is classed as cell-based, human. As to the method: FIG. 10C: MRC-5 lung fibroblast cells were serum-starved 24 hours then treated with 10 ng/mL TGF-β in serum-free media for 24 hours with or without verteporfin at the indicated concentration. FN: fibronectin, YAP: yes-activated protein, TAZ: transcriptional coactivator with PDZ-binding motif, and SMA(ACTA2): smooth muscle actin. Representative western blot is shown (n=3).
FIG. […] T.F.8: combination TGF, FGF, IL8. […] FN: fibronectin, YAP: yes-activated protein, TAZ: transcriptional coactivator with PDZ-binding motif, and SMA(ACTA2): smooth muscle actin. Representative western blot is shown (n=2).

In series [4] the test system is TGF-β-induced fibronectin. The note with it: MRC-5, 10 ng/mL TGF-β, 24 hours, low concentrations alone or in combination. How it is done:
(§2) FIGS. 13A-13C: MRC-5 lung fibroblast cells were serum-starved 24 hours then treated with or without 10 ng/mL TGF-β for 24 hours (T-24 hr). […] FN: fibronectin, YAP: yes-activated protein, TAZ: transcriptional coactivator with PDZ-binding motif, and SMA(ACTA2): smooth muscle actin. Representative western blot is shown (n=2). […] Cells were fixed in −20C methanol for 15 minutes and immunolabeled for fibronectin. Cellomics arrayscan imaging was performed and staining intensity was quantified and analyzed for fibronectin expression on a per cell basis.
(§3) Turning now to FIGS. 13A-13E, in a clinical setting, it would be advantageous for the efficacy of the therapeutics that the activated fibroblasts be reversed to a quiescent state upon treatment. […] To test the combinations, the inventors obtained quantitative analysis of fibronectin staining in fibroblasts upon treatment with TGF-β in the presence or absence of drug combinations.

Series [5] concerns activated fibroblast phenotype. The note with it: MRC-5 pre-activated with 10 ng/mL TGF-β 24 hours, then 24 hours treatment. How it is done:
as §2, §3

As to `CC(=O)OCOC(=O)CN(CC(=O)OCOC(C)=O)c1ccccc1OCCOc1ccccc1N(CC(=O)OCOC(C)=O)CC(=O)OCOC(C)=O` [BAPTA-AM, Glycine, N,N′-[1,2-ethanediylbis(oxy-2,1-phenylene)]bis[N-[2-[(acetyloxy)methoxy]-2-oxoethyl]]-, bis[(acetyloxy)methyl] ester], in series [1], the “TGF-β-induced fibronectin expression, intracellular Ca2+ modulators (western blot)” value (from here on “TGF-β-induced fibronectin expression”) is “no effect on TGF-β-induced fibronectin expression”.

For `Cl.NC(=NCc1ccc(Cl)c(Cl)c1)NC(=O)c1nc(Cl)c(N)nc1N` [DCB, 3′,4′-dichlorobenzamil hydrochloride], in series [1], the “TGF-β-induced fibronectin expression” value is listed as “able to prevent TGF-β-induced fibronectin expression in a dose-dependent manner”.

For the compound `C[C@@H]1O[C@@H](O[C@@H]2C=C3CC[C@@H]4[C@H](CC[C@]5(C)[C@@H](c6ccc(=O)oc6)CC[C@]45O)[C@@]3(C)CC2)[C@H](O)[C@H](O)[C@H]1O` [Proscillaridin A], the “IC50 / potency for inhibition of TGF-β-induced fibronectin (dose response)” value in series [2] (WPMY-1, 0-100 uM, TGF-β 24 hour) is given as “lowest IC50”. Moreover, the “inhibition of fibronectin induction, Cellomics based image analysis” value in series [2] (WPMY-1, TGF-β plus PsA at 5 micromolar) is listed as “potent inhibitor of fibronectin induction”. Moreover, in series [1] (WPMY-1, TGF-β, dose range of PsA), the “inhibition of fibronectin induction, western blot” value was “inhibits induction of fibronectin even a low nanomolar concentrations”. Moreover, the “cell viability / metabolic activity” value is “toxic to cells” in the series on WPMY-1 cells and “decreased metabolic activity” in the series with WPMY-1 cells (listed as proscillaridin A).

On to `CC(=O)O[C@H]1C[C@H](O[C@H]2[C@@H](O)C[C@H](O[C@H]3[C@@H](O)C[C@H](O[C@H]4CC[C@@]5(C)[C@H](CC[C@@H]6[C@@H]5C[C@@H](O)[C@]5(C)[C@@H](C7=CC(=O)OC7)CC[C@]65O)C4)O[C@@H]3C)O[C@@H]2C)O[C@H](C)[C@H]1O[C@@H]1O[C@H](CO)[C@@H](O)[C@H](O)[C@H]1O` [lanatoside C], for which the “cell viability / metabolic activity” value in the series with WPMY-1 cells is “no effect on cell viability”.

On to `COC(=O)c1ccc2c(c1)NC(=O)/C2=C(\Nc1ccc(N(C)C(=O)CN2CCN(C)CC2)cc1)c1ccccc1` [nintedanib], for which the “FGF signaling (TAZ upregulation)” value in series [3] (MRC-5, 10 ng/mL FGF, nintedanib 200 nM, 24 hours) is reported as “blocks FGF signaling”. The “induction of activated fibroblast markers by TGF-β” value in series [3] (MRC-5, 10 ng/mL TGF-β, nintedanib 200 nM, 24 hours) is reported as “does not bock induction by TGF-β”.

For the compound `C[C@@H]1O[C@@H](O[C@H]2C[C@@H](O)[C@]3(CO)[C@H]4[C@H](O)C[C@]5(C)[C@@H](C6=CC(=O)OC6)CC[C@]5(O)[C@@H]4CC[C@]3(O)C2)[C@H](O)[C@H](O)[C@H]1O` [ouabain], the “cell viability / metabolic activity” value in the series on WPMY-1 cells is reported as “no effect on cell viability”.

For `Cc1cc(/C=C/c2ccc3cc(N(C)C)ccc3[n+]2C)c(C)n1-c1ccccc1` [pyrvinium], the “activated fibroblast phenotype induced by TGF-β and FGF (fibronectin, YAP, TAZ, smooth muscle actin)” value in series [3] (MRC-5, 10 ng/mL TGF-β and 20 ng/ml FGF, 24 hours) is reported as “able to prevent the activated fibroblast phenotype”. The “activated fibroblast phenotype upon TGF-β and FGF, compared with nintedanib” value in series [3] (MRC-5, 10 ng/mL TGF-β and 20 ng/ml FGF, 24 hours, nintedanib 200 nM) was “able to block the activated fibroblast phenotype better than nintedanib”. In series [3] (MRC-5, 10 ng/mL TGF-β, 20 ng/mL FGF, 20 ng/mL IL-8, digoxin 250 nM, pyrvinium 500 nM vs pirfenidone 500 μm, nintedanib 250 nM), the “fibroblast activation from a combination of growth factors (TGF, FGF, IL8)” value is reported as “able to block fibroblast activation from a combination of growth factors better than pirfenidone or nintedanib”. Besides, the “fibronectin staining intensity per cell (Cellomics arrayscan)” value in series [4] is “the levels of fibronectin are reduced”. Besides, in series [5], the “reversal of activated fibroblast phenotype (fibronectin, TAZ, smooth muscle actin)” value is listed as “revert fibroblasts to the quiescent state”.

On to `C/C=C(/C)C(=O)O[C@H]1C(C)=C2[C@H]([C@@H]1OC(=O)CCCCCCC)[C@@](C)(OC(C)=O)C[C@H](OC(=O)CCC)[C@@]1(O)[C@H]2OC(=O)[C@@]1(C)O` [thapsigargin], for which, in series [1], the “TGF-β-induced fibronectin expression” value is “able to prevent TGF-β-induced fibronectin expression in a dose-dependent manner”.

Turning to verteporfin, the TAZ levels result in series [3] (MRC-5, 10 ng/mL TGF-β, 24 hours) is listed as “not reduced”. Further, the “induction of fibronectin, YAP, TAZ, smooth muscle actin by TGF-β” value in series [3] (MRC-5, 10 ng/mL TGF-β, serum-free, 24 hours, dose escalation) is “represses TGF-β induced fibronectin and smooth muscle actin expression”.
